Source: patent publication US20130109698A1, “Small Molecule Inhibitors of Functions of the HIV-1 Matrix Protein” (priority 2010, published 2013)

What was measured:
HIV-1 89BZ167 Subtype B = test: Anti-HIV efficacy in human PBMCs; format: cell-based; conditions: for IC50 / IC90: Human immunodeficiency virus 1, PBMC, PBMCs
Protocol: (§1) HIV human peripheral blood mononuclear cell (PBMC) assays were performed as described previously (Lanier et al., 2010, Antimicrob Agents Chemother 54:2901-2909 and Ptak et al., 2008, Antimicrob Agents Chemother 52:1302-1317). Briefly, fresh PBMCs, seronegative for HIV and hepatitis B virus (HBV), were isolated from blood samples of the screened donors (Biological Specialty Corporation, Colmar, Pa.) by using lymphocyte separation medium (LSM; density, 1.078±0.002 g/ml; Cellgro; Mediatech, Inc.) by following the manufacturer's instructions. Cells were stimulated by incubation in 4 μg/mL phytohemagglutinin (PHA; Sigma) for 48 to 72 h. Mitogenic stimulation was maintained by the addition of 20 U/mL recombinant human interleukin-2 (rhIL-2; R&D Systems, Inc.) to the culture medium. PHA-stimulated PBMCs from at least two donors were pooled, diluted in fresh medium, and added to 96-well plates at 5×10^4 cells/well. Cells were infected (final multiplicity of infection [MOI] of ≅0.1) in the presence of nine different concentrations of test compounds (triplicate wells/concentration) and incubated for 7 days. To determine the level of virus inhibition, cell-free supernatant samples were collected for analysis of reverse transcriptase activity (Buckheit et al., 1991, AIDS Res Hum Retroviruses 7:295-302). Following removal of supernatant samples, compound cytotoxicity was measured by the addition of 3-(4,5-dimethylthiazol-2-yl)-5-(3-carboxymethoxy-phenyl)-2-(4-sulfophenyl)-2H-tetrazolium (MTS; CellTiter 96 reagent; Promega) by following the manufacturer's instructions.

HIV-1 92BR025 Subtype C = test: Anti-HIV efficacy in human PBMCs; format: cell-based; conditions: for IC50 / IC90: Human immunodeficiency virus 1, PBMC, PBMCs
Protocol: as §1

HIV-1 92UG024 Subtype D = test: Anti-HIV efficacy in human PBMCs; format: cell-based; conditions: for IC50 / IC90: Human immunodeficiency virus 1, PBMC, PBMCs
Protocol: as §1

HIV-1 92UG031 Subtype A = test: Anti-HIV efficacy in human PBMCs; format: cell-based; conditions: for IC50 / IC90: Human immunodeficiency virus 1, PBMC, PBMCs
Protocol: as §1

HIV-1 93BR020 Subtype F = test: Anti-HIV efficacy in human PBMCs; format: cell-based; conditions: for IC50 / IC90: Human immunodeficiency virus 1, PBMC, PBMCs
Protocol: as §1

HIV-1 BCF02 Group O = test: Anti-HIV efficacy in human PBMCs; format: cell-based; conditions: for IC50 / IC90: Human immunodeficiency virus 1, PBMC; for IC50 / IC90 / Antiviral index (TC50/IC50): BCF02 Group O
Protocol: as §1

HIV-1 CMU08 Subtype E = test: Anti-HIV efficacy in human PBMCs; format: cell-based; conditions: for IC50 / IC90: Human immunodeficiency virus 1, PBMC, PBMCs
Protocol: as §1

HIV-1 G3 Subtype G = test: Anti-HIV efficacy in human PBMCs; format: cell-based; conditions: for Antiviral index (TC50/IC50): G3 Subtype G; for IC50 / IC90: Human immunodeficiency virus 1, PBMC
Protocol: as §1

[1] = Compound cytotoxicity in PBMCs (MTS); format: cell-based, human; conditions: human; Table 4 study, PBMCs; read-out: TC50
Protocol: as §1

Dengue serotypes 1-4 = test: Antiviral spectrum: cytopathic effect assay; format: cell-based
HIV-1 Ba-L = test: Antiviral activity of additional compounds (Tables 6 and 7); format: cell-based
Protocol: as §1

HIV-1 NL4-3 = test: as above; format: cell-based
Protocol: as §1

PBMCs = test: Compound cytotoxicity in PBMCs (MTS); format: cell-based, human; conditions: Tables 6 and 7 study; read-out: TC50 (the source's name)
Protocol: as §1

HIV-1 IIIB = test: Infection of Sup-T1 cells by HIV-1 IIIB, p24 ELISA; conditions: 50 μM, three days
[2] = Human immunodeficiency virus 1, BAL
[3] = Human immunodeficiency virus 1, NL43

SMILES | Antiviral index (TC50/IC50) (HIV-1 89BZ167 Subtype B) | IC50 (HIV-1 89BZ167 Subtype B) [µM] | IC90 (HIV-1 89BZ167 Subtype B) [µM] | Antiviral index (TC50/IC50) (HIV-1 92BR025 Subtype C) | IC50 (HIV-1 92BR025 Subtype C) [µM] | IC90 (HIV-1 92BR025 Subtype C) [µM] | Antiviral index (TC50/IC50) (HIV-1 92UG024 Subtype D) | IC50 (HIV-1 92UG024 Subtype D) [µM] | IC90 (HIV-1 92UG024 Subtype D) [µM] | Antiviral index (TC50/IC50) (HIV-1 92UG031 Subtype A) | IC50 (HIV-1 92UG031 Subtype A) [µM] | IC90 (HIV-1 92UG031 Subtype A) [µM] | Antiviral index (TC50/IC50) (HIV-1 93BR020 Subtype F) | IC50 (HIV-1 93BR020 Subtype F) [µM] | IC90 (HIV-1 93BR020 Subtype F) [µM] | IC50 (HIV-1 BCF02 Group O; PBMCs) [µM] | IC90 (HIV-1 BCF02 Group O; PBMCs) [µM] | Antiviral index (TC50/IC50) (HIV-1 CMU08 Subtype E) | IC50 (HIV-1 CMU08 Subtype E) [µM] | IC90 (HIV-1 CMU08 Subtype E) [µM] | also measured
Cc1ccc(NC(=O)CN2CCN(Cc3nc(-c4ccc(F)cc4)no3)CC2)cc1 [CMPD-7, 2-(4-((3-(4-fluorophenyl)-1,2,4-oxadiazol-5-yl)methyl)piperazin-1-yl)-N-(p-tolyl)acetamide] | >6.97 | 14.4 | > 100 | >9.51 | 10.5 | > 100 | >11.3 | 8.88 | 35.2 | >6.72 | 14.9 | > 100 | >6.42 | 15.6 | > 100 | > 100 | > 100 | >10.4 | 9.64 | 99.7 | activity against the group O isolate HIV-1BCF02, in words (HIV-1 BCF02 Group O; over the concentrations tested, PBMCs): no activity; Antiviral index (TC50/IC50) (HIV-1 G3 Subtype G): >9.36; IC50 (HIV-1 G3 Subtype G): 10.7 µM; IC90 (HIV-1 G3 Subtype G): 30.2 µM; CC50 at 7 days [1]: > 100 µM; inhibitory effects on replication (Dengue serotypes 1-4): no inhibitory effects
O=C(CNC(=O)COc1ccccc1)NCc1ccc(C(=O)N2CCCCC2)cc1 [CMPD-14, N-(2-oxo-2-((4-(piperidine-1-carbonyl)benzyl)amino)ethyl)-2-phenoxyacetamide] | >4.66 | 21.4 | 40.7 | >4.24 | 23.6 | 96.6 | >5.41 | 18.5 | 29.5 | >5.40 | 18.5 | 42.2 | >4.93 | 20.3 | 32.6 | 21.9 | 45 | >6.27 | 16 | 59.5 | Antiviral index (TC50/IC50) (HIV-1 BCF02 Group O): >4.57; Antiviral index (TC50/IC50) (HIV-1 G3 Subtype G): >4.88; IC50 (HIV-1 G3 Subtype G): 20.5 µM; IC90 (HIV-1 G3 Subtype G): 29.2 µM; Antiviral index (TC50/IC50) (HIV-1 Ba-L): > 3.13; IC50 (HIV-1 Ba-L; [2]): 32 µM; IC90 (HIV-1 Ba-L; [2]): > 100 µM; Antiviral index (TC50/IC50) (HIV-1 NL4-3): > 2.53; IC50 (HIV-1 NL4-3; [3]): 39.6 µM; IC90 (HIV-1 NL4-3; [3]): > 100 µM; CC50 at 7 days [1]: > 100 µM; CC50 (PBMCs): > 100 µM; inhibitory effects on replication (Dengue serotypes 1-4): no inhibitory effects
CCOc1ccc(NC(=O)Cc2cn3ccsc3n2)cc1S(=O)(=O)N1CCCCC1 [CMPD-18, N-(4-ethoxy-3-(piperidin-1-ylsulfonyl)phenyl)-2-(imidazo[2,1-b]thiazol-6-yl)acetamide] | >2.94 | 21.3 | 71.8 | >2.79 | 22.4 | 75 | >6.02 | 10.4 | 25.9 | >3.98 | 15.8 | 64.7 | >3.39 | 18.5 | 54.1 | 27.2 | 75.6 | >5.00 | 15.9 | 95 | Antiviral index (TC50/IC50) (HIV-1 BCF02 Group O): >2.30; Antiviral index (TC50/IC50) (HIV-1 G3 Subtype G): >10.9; IC50 (HIV-1 G3 Subtype G): 5.73 µM; IC90 (HIV-1 G3 Subtype G): 21 µM; CC50 at 7 days [1]: 92.3 µM; inhibitory effects on replication (Dengue serotypes 1-4): no inhibitory effects; HIV-1 replication (p24), in words (HIV-1 IIIB): inhibited
